Converted amounts (≈) assume the structure as drawn. “And” between values parts separate entries of the source, which are not always exact repeats. Equal entries are not always repeated. Where two headings read alike, the source gives them in different places.
Experiments:
[1] = tested on: B. pumilus; assay: Broth dilution MIC/MBC; format: cell-based, Bacillus pumilus; conditions: for MBC / MIC: Bacillus pumilus; for MBC: read-out: MBC B. pumilus; for MIC: read-out: MIC B. pumilus
[2] = tested on: S. faecalis; assay: Broth dilution MIC/MBC; format: cell-based, Streptococcus faecalis; conditions: for MBC / MIC: Enterococcus faecalis; for MBC: read-out: MBC S. faecalis; for MIC: read-out: MIC S. faecalis
[3] = tested on: E. coli; assay: Broth dilution MIC/MBC; format: cell-based, Escherichia coli; conditions: for MBC / MIC: Escherichia coli; for MBC: read-out: MBC E. coli; for MIC: read-out: MIC E. coli
[4] = tested on: E. cloacae; assay: Broth dilution MIC/MBC; format: cell-based, Enterobacter cloacae; conditions: for MBC / MIC: Enterobacter cloacae; for MBC: read-out: MBC E. cloacae; for MIC: read-out: MIC E. cloacae
[5] = tested on: S. cerevisiae; assay: Broth dilution MIC/MFC; format: cell-based, Saccharomyces cerevisiae; conditions: for MFC / MIC: Saccharomyces cerevisiae; for MFC: read-out: MFC S. cerevisiae; for MIC: read-out: MIC S. cerevisiae
[6] = tested on: C. albicans; assay: Broth dilution MIC/MFC; format: cell-based, Candida albicans; conditions: for MFC / MIC: Candida albicans; for MFC: read-out: MFC C. albicans; for MIC: read-out: MIC C. albicans, broth dilution; for MIC C. albicans: broth dilution
[7] = tested on: Escherichia coli; conditions: cited from earlier work
[8] = target: DNA gyrase A (Escherichia coli, UniProt P0AES4); assay: DNA gyrase supercoiling assay; format: biochemical; conditions: IC50 ± SD DNA gyrase A, E. coli DNA gyrase supercoiling
[9] = tested on: E. coli; assay: Time-kill kinetic test; format: cell-based; conditions: 1x MIC
[10] = tested on: WI38 cells; assay: In vitro cytotoxicity MTT assay; conditions: Homo sapiens, WI-38, 48 h, read-out: WI-38 IC50 ± SD
[11] = tested on: C. albicans; conditions: cited from earlier work

Sequence of DNA gyrase A (P0AES4 whole entry): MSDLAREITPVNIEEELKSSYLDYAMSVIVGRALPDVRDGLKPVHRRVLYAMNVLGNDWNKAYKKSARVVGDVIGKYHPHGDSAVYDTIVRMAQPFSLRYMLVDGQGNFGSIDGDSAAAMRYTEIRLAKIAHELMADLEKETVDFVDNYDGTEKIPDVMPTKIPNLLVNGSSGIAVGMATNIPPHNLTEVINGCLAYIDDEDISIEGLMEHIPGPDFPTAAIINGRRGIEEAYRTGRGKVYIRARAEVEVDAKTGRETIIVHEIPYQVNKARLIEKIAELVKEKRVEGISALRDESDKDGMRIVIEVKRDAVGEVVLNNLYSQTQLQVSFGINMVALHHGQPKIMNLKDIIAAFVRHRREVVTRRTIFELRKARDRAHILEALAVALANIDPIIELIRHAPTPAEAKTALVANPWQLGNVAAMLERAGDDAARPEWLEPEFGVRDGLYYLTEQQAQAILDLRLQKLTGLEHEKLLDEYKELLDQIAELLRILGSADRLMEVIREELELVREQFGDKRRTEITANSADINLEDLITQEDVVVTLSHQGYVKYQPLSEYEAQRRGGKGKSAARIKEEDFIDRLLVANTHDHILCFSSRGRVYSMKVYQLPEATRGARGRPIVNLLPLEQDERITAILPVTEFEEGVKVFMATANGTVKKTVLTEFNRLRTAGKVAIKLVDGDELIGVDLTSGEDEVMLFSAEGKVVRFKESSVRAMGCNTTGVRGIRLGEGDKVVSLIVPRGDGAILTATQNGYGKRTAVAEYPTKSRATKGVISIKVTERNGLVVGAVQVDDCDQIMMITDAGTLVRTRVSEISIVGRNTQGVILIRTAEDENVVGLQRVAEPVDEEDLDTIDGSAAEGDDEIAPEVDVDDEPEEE

Molecule | MBC/ MIC ratio B. pumilus [1] | MBC [1] | MIC [1] | MBC/ MIC ratio S. faecalis [2] | MBC [2] | MIC [2] | MBC/ MIC ratio E. coli [3] | MBC [3] | MIC [3] | MBC/ MIC ratio E. cloacae [4] | MBC [4] | MIC [4] | MFC/ MIC ratio S. cerevisiae [5] | MFC [5] | MIC [5] | MFC/ MIC ratio C. albicans [6] | MFC [6] | MIC [6] | also measured
N#Cc1c(-c2ccc(Cl)cc2Cl)c(C(N)=O)c(N)n(N)c1=O [Compound 3b, 1,2-diamino-5-cyano-4-(2,4-dichlorophenyl)-6-oxo-1,6-dihydropyridine-3-carboxamide] | 2 | 31.3 µg/mL (≈ 92.6 µM) | 15.6 µg/mL (≈ 46.1 µM) | 2 | 62.5 µg/mL (≈ 185 µM) | 31.3 µg/mL (≈ 92.6 µM) | 4 | 31.3 µg/mL (≈ 92.6 µM) | 7.81 µg/mL (≈ 23.1 µM) | 4 | 125 µg/mL (≈ 370 µM) | 31.3 µg/mL (≈ 92.6 µM) | 2 | 250 µg/mL (≈ 739 µM) | 125 µg/mL (≈ 370 µM) | 2 | 125 µg/mL (≈ 370 µM) | 62.5 µg/mL (≈ 185 µM) | –
N#Cc1c(-c2ccc(OCc3ccccc3)cc2)c(C(N)=S)c(N)n(N)c1=O [Compound 4d, 1,2-diamino-4-(4-(benzyloxy)phenyl)-5-cyano-6-oxo-1,6-dihydropyridine-3-carbothioamide] | 4 | 31.3 µg/mL (≈ 80 µM) | 7.81 µg/mL (≈ 20 µM) | 2 | 62.5 µg/mL (≈ 160 µM) | 31.3 µg/mL (≈ 80 µM) | 4 | 31.3 µg/mL (≈ 80 µM) | 7.81 µg/mL (≈ 20 µM) | 2 | 125 µg/mL (≈ 319 µM) | 62.5 µg/mL (≈ 160 µM) | 2 | 62.5 µg/mL (≈ 160 µM) | 31.3 µg/mL (≈ 80 µM) | 2 | 125 µg/mL (≈ 319 µM) | 31.3 µg/mL (≈ 80 µM) | MIC C. albicans [6]: 62.5 µg/mL (≈ 160 µM)
CC1COc2c(N3CCN(C)CC3)c(F)cc3c(=O)c(C(=O)O)cn1c23 (centres unmarked) [ofloxacin] | – | – | – | – | – | – | – | – | – | – | – | – | – | – | – | – | – | – | IZ E. coli [7]: 24 mm
N#Cc1c(-c2ccc(OCc3ccccc3)cc2)c(C(N)=O)c(N)n(N)c1=O [Compound 3d, 1,2-diamino-4-(4-(benzyloxy)phenyl)-5-cyano-6-oxo-1,6-dihydropyridine-3-carboxamide] | 4 | 62.5 µg/mL (≈ 166 µM) | 15.6 µg/mL (≈ 41.6 µM) | 4 | 62.5 µg/mL (≈ 166 µM) | 15.6 µg/mL (≈ 41.6 µM) | 4 | 15.6 µg/mL (≈ 41.6 µM) | 3.91 µg/mL (≈ 10.4 µM) | 4 | 31.3 µg/mL (≈ 83.4 µM) | 7.81 µg/mL (≈ 20.8 µM) | 2 | 62.5 µg/mL (≈ 166 µM) | 31.3 µg/mL (≈ 83.4 µM) | 4 | 500 µg/mL (≈ 1330 µM) | – | IC50 [8]: 4.48 µM and 4.49 µM; Time to bactericidal activity against E. coli [9]: 90 to 120 min and 90 min; IC50 [10]: 48.8 ± 2.07 µM
N#Cc1c(-c2ccc(Cl)cc2Cl)c(C(N)=S)c(N)n(N)c1=O [Compound 4b, 1,2-diamino-5-cyano-4-(2,4-dichlorophenyl)-6-oxo-1,6-dihydropyridine-3-carbothioamide] | 2 | 62.5 µg/mL (≈ 176 µM) | 31.3 µg/mL (≈ 88.4 µM) | – | 125 µg/mL (≈ 353 µM) | 31.3 µg/mL (≈ 88.4 µM) | – | 62.5 µg/mL (≈ 176 µM) | 7.81 µg/mL (≈ 22 µM) | – | 125 µg/mL (≈ 353 µM) | 31.3 µg/mL (≈ 88.4 µM) | 4 | 500 µg/mL (≈ 1410 µM) | 125 µg/mL (≈ 353 µM) | – | 62.5 µg/mL (≈ 176 µM) | 31.3 µg/mL (≈ 88.4 µM) | –
Cc1c(C(N)=O)c(N)n(N)c(=O)c1C#N [Compound 3a, 1,2-diamino-5-cyano-4-methyl-6-oxo-1,6-dihydropyridine-3-carboxamide] | 4 | 125 µg/mL (≈ 603 µM) | 31.3 µg/mL (≈ 151 µM) | 4 | 31.3 µg/mL (≈ 151 µM) | 7.81 µg/mL (≈ 37.7 µM) | 4 | 62.5 µg/mL (≈ 302 µM) | 15.6 µg/mL (≈ 75.3 µM) | 8 | 31.3 µg/mL (≈ 151 µM) | 3.91 µg/mL (≈ 18.9 µM) | 4 | 125 µg/mL (≈ 603 µM) | 31.3 µg/mL (≈ 151 µM) | 4 | 500 µg/mL (≈ 2410 µM) | – | –
C[C@@H]1[C@H](O)[C@@H](C)/C=C/C=C/CC/C=C/C=C/C=C/C=C/C(O[C@H]2O[C@H](C)[C@@H](O)[C@H](N)[C@@H]2O)CC2O[C@](O)(CC(O)C(O)CCC(O)CC(O)CC(O)CC(=O)O[C@H]1C)CC(O)C2C(=O)O (some centres unmarked) [nystatin] | – | – | – | – | – | – | – | – | – | – | – | – | – | – | – | – | – | – | MIC C. albicans [11]: 1.95 µg/mL (≈ 2.11 µM)
CN(C)c1ccc(-c2c(C(N)=S)c(N)n(N)c(=O)c2C#N)cc1 [Compound 4c, 1,2-diamino-5-cyano-4-(4-(dimethylamino)phenyl)-6-oxo-1,6-dihydropyridine-3-carbothioamide] | 2 | 125 µg/mL (≈ 381 µM) | 62.5 µg/mL (≈ 190 µM) | 4 | 31.3 µg/mL (≈ 95.3 µM) | 7.81 µg/mL (≈ 23.8 µM) | 4 | 125 µg/mL (≈ 381 µM) | 31.3 µg/mL (≈ 95.3 µM) | 4 | 250 µg/mL (≈ 761 µM) | 62.5 µg/mL (≈ 190 µM) | 2 | 125 µg/mL (≈ 381 µM) | 62.5 µg/mL (≈ 190 µM) | 4 | 62.5 µg/mL (≈ 190 µM) | 15.6 µg/mL (≈ 47.5 µM) | –
gentamycin [reference compound] | – | – | – | – | – | – | – | – | – | – | – | – | – | – | – | – | – | – | Time to bactericidal activity against E. coli [9]: 90 to 120 min and 120 min
Cc1c(C(N)=S)c(N)n(N)c(=O)c1C#N [Compound 4a, 1,2-diamino-5-cyano-4-methyl-6-oxo-1,6-dihydropyridine-3-carbothioamide] | 2 | 125 µg/mL (≈ 560 µM) | 62.5 µg/mL (≈ 280 µM) | 4 | 62.5 µg/mL (≈ 280 µM) | 15.6 µg/mL (≈ 69.9 µM) | 2 | 31.3 µg/mL (≈ 140 µM) | 15.6 µg/mL (≈ 69.9 µM) | 2 | 125 µg/mL (≈ 560 µM) | 62.5 µg/mL (≈ 280 µM) | 8 | 500 µg/mL (≈ 2240 µM) | 62.5 µg/mL (≈ 280 µM) | – | 62.5 µg/mL (≈ 280 µM) | 31.3 µg/mL (≈ 140 µM) | –
CN(C)c1ccc(-c2c(C(N)=O)c(N)n(N)c(=O)c2C#N)cc1 [Compound 3c, 1,2-diamino-5-cyano-4-(4-(dimethylamino)phenyl)-6-oxo-1,6-dihydropyridine-3-carboxamide] | 4 | 62.5 µg/mL (≈ 200 µM) | 15.6 µg/mL (≈ 49.9 µM) | 2 | 125 µg/mL (≈ 400 µM) | 62.5 µg/mL (≈ 200 µM) | 4 | 62.5 µg/mL (≈ 200 µM) | 15.6 µg/mL (≈ 49.9 µM) | 2 | 125 µg/mL (≈ 400 µM) | 62.5 µg/mL (≈ 200 µM) | 4 | 125 µg/mL (≈ 400 µM) | 31.3 µg/mL (≈ 100 µM) | 2 | 125 µg/mL (≈ 400 µM) | 31.3 µg/mL (≈ 100 µM) | MIC C. albicans [6]: 62.5 µg/mL (≈ 200 µM)
CC(=O)N1CCN(c2ccc(OCC3COC(Cn4ccnc4)(c4ccc(Cl)cc4Cl)O3)cc2)CC1 (centres unmarked) [Keto., Ketoconazole, reference compound] | – | – | – | – | – | – | – | – | – | – | – | – | – | 15.6 µg/mL (≈ 29.4 µM) | 1.95 µg/mL (≈ 3.67 µM) | – | 31.3 µg/mL (≈ 58.9 µM) | 1.95 µg/mL (≈ 3.67 µM) | –
CC1(C)S[C@@H]2[C@H](NC(=O)Cc3ccccc3)C(=O)N2[C@H]1C(=O)O [Pen. G, Penicillin G, reference compound] | 2 | 125 µg/mL (≈ 374 µM) | 62.5 µg/mL (≈ 187 µM) | 2 | 62.5 µg/mL (≈ 187 µM) | 31.5 µg/mL (≈ 94.2 µM) | – | – | – | – | – | – | – | – | – | – | – | – | –

Reference: paper PMC11562494 (BMC Chemistry, 2024)
